RateCL5D data for one compound are collected here from US12390447B2, “Sirtuin 6 protein deacylase (SIRT6) activators” (Wisconsin Alumni Research Foundation, priority 2019, dated 2025).

For assay [1], the target named is SIRT6 K160A (Homo sapiens, UniProt Q8N6T7, K160A). The experiment in a line: Steady-state deacetylation rate of SIRT6 K160A with or without CL5D. The assay is classed as biochemical. Particulars: SIRT6 K160A 1 μM, H3K9ac 40 μM, CL5D 50 μM, 25 minutes. The protocol: (§1) All sirtuin deacylation assays were carried out at 37° C. in 20 mM potassium phosphate pH 7.5 with 0.5 mM NAD^+, 10% DMSO, and 20 μM H3K9ac or H3K9myr peptides, unless otherwise noted in legend, and quenched by the addition of 2% TFA final. Steady-state reactions were constrained to less than 20% substrate turnover to prevent product inhibition. A variety of times were required to monitor SIRT6 deacetylation (2-60 minutes) under this restraint given the ability to strongly activate catalysis. In these cases, specific activities were determined and either reported as is or as fold-activation of specific activity. Deacylation reactions were analyzed by reversed phase high-performance liquid chromatography on a Kinetex C18 column (100 Å, 100×4.6 mm, 2.6 μm, Phenomenex) by monitoring the formation of the deacylated product at 214 nm. Deacetylation reactions were analyzed using a gradient of 33-100% B (30% acetonitrile with 0.05% TFA) in 8 min at 1.6 mL min^−1. Demyristoylation reactions were analyzed using a gradient of 3 to 100% B (acetonitrile with 0.05% TFA) in 10 min at 1.6 mL min^−1. The product and substrate peaks were quantified and ratio of these allowed for quantification of product formation. Three independent experiments were performed for each condition with averages being plotted and error bars representing the standard deviation of these replicates. […]

Assay [2] deals with SIRT6 WT (Homo sapiens, UniProt Q8N6T7). Kind of assay: Steady-state deacetylation rate of SIRT6 WT with or without CL5D. The conditions noted are these: SIRT6 WT 1 μM, H3K9ac 40 μM, CL5D 50 μM, 25 minutes. It counts as biochemical. The protocol:
as §1

Sequence of SIRT6 K160A (Q8N6T7 whole entry K160A): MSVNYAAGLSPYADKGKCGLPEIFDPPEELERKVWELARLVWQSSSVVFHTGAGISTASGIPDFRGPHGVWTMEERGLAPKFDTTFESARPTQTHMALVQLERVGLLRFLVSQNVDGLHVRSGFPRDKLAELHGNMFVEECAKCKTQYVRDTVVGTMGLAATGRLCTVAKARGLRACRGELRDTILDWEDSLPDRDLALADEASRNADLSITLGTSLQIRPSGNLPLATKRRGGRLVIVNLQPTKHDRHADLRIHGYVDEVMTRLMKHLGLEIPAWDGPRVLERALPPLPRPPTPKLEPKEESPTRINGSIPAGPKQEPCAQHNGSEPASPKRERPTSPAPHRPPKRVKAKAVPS
Sequence of SIRT6 WT (Q8N6T7 whole entry): as the sequence (Q8N6T7 whole entry K160A) above, with A160K counted along it

As for `O=C(O)c1ccc2c(c1)C(=O)N(c1ccc(N(C(=O)c3c(Cl)cc(Cl)cc3Cl)C(=O)c3c(Cl)cc(Cl)cc3Cl)c(Cl)c1)C2=O` [CL-5D, 2-(3-chloro-4-(2,4,6-trichloro-N-(2,4,6-trichlorobenzoyl)benzamido)phenyl)-1,3-dioxoisoindoline-5-carboxylic acid], the figures for the RateCL5D in assay [1] and in assay [2] were 0.126 ± 0.006 µM/min and 0.164 ± 0.008 µM/min, respectively.
